This experiment deals with T1, p53-Y220C mutant protein (Homo sapiens, UniProt P04637, Y220C).
T1 construct: The recombinant Y220C p53 DBD protein with his-tag
Kind of experiment: In vitro DNA binding activity assay (TR-FRET). The class given is biochemical. Conditions: concentration required to increase the binding activity of protein to DNA by 50%. The protocol:
The activity of the compound to modulate the binding of the p53-Y220C mutant protein to DNA was detected using TR-FREt (Time-Resolved Fluorescence Resonance Energy Transfer). The recombinant Y220C p53 DBD protein with his-tag and the DNA sequence with biotin label were prepared firstly. Donor Eu(Europium)-SA(Streptavidin) can be bound to the DNA sequence through biotin, receptor for his antibody attached to alphaphycocyanin(APC, allophycocyanin), and his antibody can be bound to the Y220C p53 DBD protein with his-tag. When exposed to an excitation light with a wavelength of 340 nm, the donor Eu(Europium)-SA(Streptavidin) can emit fluorescence with a wavelength of 615 nm. If the donor and the receptor are close to each other, the donor will transfer part of the energy to the receptor and produce fluorescence with a wavelength of 665 nm. […] If there is no interaction, only 615 nm fluorescence is produced. • 1) Experimental steps • a. Adding 4 µL of dilute compound solution to each well of a 384-well microplate; • a. Adding 4 µL of 4X P53 working solution to each well of the 384-well microplate; • c. Sealing the 384-well microplate and equilibrating the system at room temperature for 60 min; • d. Adding 4 µl of biotin DNA solution to the 384-well microplate; • e. Adding 4 µl of 4X test solution (MAb Anti-6His-Eu and streptavidin-d2) to each well of the 384-well microplate; • f. Incubating overnight in the dark; and • g. Reading data of 665 nm and 615 nm wavelengths on the BMG multifunctional microplate reader. • 2) Data analysis • a. Calculating the ratio for each well (Ratio665 nm/615 nm-Ratiobackground); • b. Calculating the activity percentage (%activity) as follows: C = (Ave_Ac−Ave_Ba)/(Ave_Dc−Ave_Bd) [formula] R data = (A−Ave_Ba−CD)/(D−Ave_Bd)*(Ave_Dc−Ave_Bd) [formula] % Activity = R data/Ave_VC*100 [formula] • A: Fluorescence intensity of the sample at 665 nm; D: Fluorescence intensity of the sample at 615 nm; • Ba: Background fluorescence intensity of the culture plate at 665 nm; Bd: Background fluorescence intensity of the culture plate at 615 nm; • Dc: Background fluorescence intensity of HIS-E at 615 nm; Ac: Background fluorescence intensity of streptavidin-d2 at 665 nm); and • c. Calculating SC150 and plotting dose-effect curve
Compared to the absence of the compound of the present invention, the activation percentage of binding of the p53 mutant protein to DNA in the presence of the compound of the present invention is expressed as SC150, which indicates the concentration of the compound required to increase the DNA binding activity of the p53 mutant protein by 50%. The SC150 is calculated using Prism™.
In general terms: TR-FRET usually uses a lanthanide donor and a delayed reading to cut background.
Compound `CN1CC[C@@H](Nc2cccc3c(CC(F)(F)F)c(C#CCNC(=O)c4ccc(F)cc4)nn23)[C@@H](F)C1` [Compound 076, 4-fluoro-N-[3-(7-{[(3S,4R)-3-fluoro-1-methylpiperidin-4-yl]amino}-3-(2,2,2-trifluoroethyl)pyrazolo[1,5-a]pyridin-2-yl)prop-2-yn-1-yl]benzamide] came in with an SC150 of 75 nM. For `CN1CC[C@@H](Nc2cccc3c(CC(F)(F)F)c(C#CCNC(=O)c4cn(C(C)(C)C)nn4)nn23)[C@@H](F)C1` [Compound 142, 1-tert-butyl-N-[3-(7-{[(3S,4R)-3-fluoro-1-methylpiperidin-4-yl]amino}-3-(2,2,2-trifluoroethyl)pyrazolo[1,5-a]pyridin-2-yl)prop-2-yn-1-yl]-1H-1,2,3-triazole-4-carboxamide], the SC150 is listed as 29 nM. With `CN1CC[C@@H](Nc2cccc3c(CC(F)(F)F)c(C#CCNC(=O)c4nnn(C(C)(C)C)n4)nn23)[C@@H](F)C1` [Compound 145, 2-tert-butyl-N-[3-(7-{[(3S,4R)-3-fluoro-1-methylpiperidin-4-yl]amino}-3-(2,2,2-trifluoroethyl)pyrazolo[1,5-a]pyridin-2-yl)prop-2-yn-1-yl]-2H-tetrazole-5-carboxamide], the SC150 is reported as 50 nM. The figure for `CN1CC[C@@H](Nc2cccc3c(CC(F)(F)F)c(C#CCNC(=O)c4cnn(C(C)(C)C(F)(F)F)c4)nn23)[C@@H](F)C1` [Compound 148, N-[3-(7-{[(3S,4R)-3-fluoro-1-methylpiperidin-4-yl]amino}-3-(2,2,2-trifluoroethyl)pyrazolo[1,5-a]pyridin-2-yl)prop-2-yn-1-yl]-1-(1,1,1-trifluoro-2-methylprop-2-yl)-1H-pyrazole-4-carboxamide] is 27 nM; for `Cc1ccc(C(=O)NCC#Cc2nn3c(N[C@@H]4CCN(C)C[C@@H]4F)cccc3c2CC(F)(F)F)cc1` [Compound 160, N-[3-(7-{[(3S,4R)-3-fluoro-1-methylpiperidin-4-yl]amino}-3-(2,2,2-trifluoroethyl)pyrazolo[1,5-a]pyridin-2-yl)prop-2-yn-1-yl]-4-methylbenzamide] it is 84 nM; for `CN1CC[C@@H](Nc2cccc3c(CC(F)(F)F)c(C#CCNC(=O)c4cnn(C(C)(C)CF)c4)nn23)[C@@H](F)C1` [Compound 234, N-[3-(7-{[(3S,4R)-3-fluoro-1-methylpiperidin-4-yl]amino}-3-(2,2,2-trifluoroethyl)pyrazolo[1,5-a]pyridin-2-yl)prop-2-yn-1-yl]-1-(1-fluoro-2-methylpropan-2-yl)-1H-pyrazole-4-carboxamide] it is 21 nM. Next, `CN1CC[C@@H](Nc2cccc3c(CC(F)(F)F)c(C#CCNC(=O)C4C5COCC54)nn23)[C@@H](F)C1` (stereo partly drawn) [Compound 240, N-[3-(7-{[(3S,4R)-3-fluoro-1-methylpiperidin-4-yl]amino}-3-(2,2,2-trifluoroethyl)pyrazolo[1,5-a]pyridin-2-yl)prop-2-yn-1-yl]-3-oxabicyclo[3.1.0]hexane-6-carboxamide]: 75 nM; `CN1CC[C@@H](Nc2cccc3c(CC(F)(F)F)c(C#CCNC(=O)C4CC45CC5)nn23)[C@@H](F)C1` (stereo partly drawn) [Compound 241, N-[3-(7-{[(3S,4R)-3-fluoro-1-methylpiperidin-4-yl]amino}-3-(2,2,2-trifluoroethyl)pyrazolo[1,5-a]pyridin-2-yl)prop-2-yn-1-yl]spiro[2.2]pentane-1-carboxamide]: 82 nM. Next, `CN1CC[C@@H](Nc2cccc3c(CC(F)(F)F)c(C#CCNC(=O)c4cnn(C(C)(C)C#N)c4)nn23)[C@@H](F)C1` [Compound 248, 1-(1-cyano-1-methylethyl)-N-[3-(7-{[(3S,4R)-3-fluoro-1-methylpiperidin-4-yl]amino}-3-(2,2,2-trifluoroethyl)pyrazolo[1,5-a]pyridin-2-yl)prop-2-yn-1-yl]-1H-pyrazole-4-carboxamide]: 14 nM; `CN1CC[C@@H](Nc2cccc3c(CC(F)(F)F)c(C#CCNC(=O)c4cnn(CC#N)c4)nn23)[C@@H](F)C1` [Compound 249, 1-cyanomethyl-N-[3-(7-{[(3S,4R)-3-fluoro-1-methylpiperidin-4-yl]amino}-3-(2,2,2-trifluoroethyl)pyrazolo[1,5-a]pyridin-2-yl)prop-2-yn-1-yl]-1H-pyrazole-4-carboxamide]: 17 nM.

For `CN1CC[C@@H](Nc2cccc3c(CC(F)(F)F)c(C#CCNC(=O)c4ccc(=O)n(C)c4)nn23)[C@@H](F)C1` [Compound 265, N-[3-(7-{[(3S,4R)-3-fluoro-1-methylpiperidin-4-yl]amino}-3-(2,2,2-trifluoroethyl)pyrazolo[1,5-a]pyridin-2-yl)prop-2-yn-1-yl]-1-methyl-6-oxo-1,6-dihydropyridine-3-carboxamide], the SC150 is listed as 40 nM. The figure for `COc1ccc(C(=O)NCC#Cc2nn3c(N[C@@H]4CCN(C)C[C@@H]4F)cccc3c2CC(F)(F)F)cn1` [Compound 266, N-(3-(7-{[(3S,4R)-3-fluoro-1-methylpiperidin-4-yl]amino}-3-(2,2,2-trifluoroethyl)pyrazolo[1,5-a]pyridin-2-yl)prop-2-yn-1-yl)-6-methoxynicotinamide] is 46 nM; for `CN1CC[C@@H](Nc2cccc3c(CC(F)(F)F)c(C#CCNC(=O)c4cnn(CC5CC5)c4)nn23)[C@@H](F)C1` [Compound 268, 1-(cyclopropylmethyl)-N-[3-(7-{[(3S,4R)-3-fluoro-1-methylpiperidin-4-yl]amino}-3-(2,2,2-trifluoroethyl)pyrazolo[1,5-a]pyridin-2-yl)prop-2-yn-1-yl]-1H-pyrazole-4-carboxamide] it is 10 nM; for `CC(C1CC1)n1cc(C(=O)NCC#Cc2nn3c(N[C@@H]4CCN(C)C[C@@H]4F)cccc3c2CC(F)(F)F)cn1` (stereo partly drawn) [Compound 269, 1-(1-cyclopropylethyl)-N-[3-(7-{[(3S,4R)-3-fluoro-1-methylpiperidin-4-yl]amino}-3-(2,2,2-trifluoroethyl)pyrazolo[1,5-a]pyridin-2-yl)prop-2-yn-1-yl]-1H-pyrazole-4-carboxamide] it is 8 nM. The figure for `Cc1cc(C(=O)NCC#Cc2nn3c(N[C@@H]4CCN(C)C[C@@H]4F)cccc3c2CC(F)(F)F)cn1C` [Compound 273, N-[3-(7-{[(3S,4R)-3-fluoro-1-methylpiperidin-4-yl]amino}-3-(2,2,2-trifluoroethyl)pyrazolo[1,5-a]pyridin-2-yl)prop-2-yn-1-yl]-1,5-dimethyl-1H-pyrrole-3-carboxamide] is 11 nM. Next, `Cc1c(C(=O)NCC#Cc2nn3c(N[C@@H]4CCN(C)C[C@@H]4F)cccc3c2CC(F)(F)F)cnn1C1CC1` [Compound 282, 1-cyclopropyl-N-[3-(7-{[(3S,4R)-3-fluoro-1-methylpiperidin-4-yl]amino}-3-(2,2,2-trifluoroethyl)pyrazolo[1,5-a]pyridin-2-yl)prop-2-yn-1-yl]-5-methyl-1H-pyrazole-4-carboxamide]: 19 nM; `CN1CC[C@@H](Nc2cccc3c(CC(F)(F)F)c(C#CCNC(=O)c4cnn(CC5CCCC5)c4N)nn23)[C@@H](F)C1` [Compound 285]: 28 nM.

For the origin of these results see EP4737449A1 (Changchun Genescience Pharmaceutical Co., Ltd., priority 2023, dated 2025).
